Source: US20220041591A1, “COMPOUNDS FOR TREATING DIABETES AND/OR RELATED CONDITIONS” (AUCKLAND UNISERVICES LIMITED, priority 2018, published 2022)

Key:
[1] = Solubility and physical characteristics (1 M NaOH / 1 M HCl titration); conditions: for soluble during initial suspension and on titration and pH adjustment: Example 12, titrated down to pH 8-9 with 1 M HCl
Excerpt: (§2) The compounds were titrated down to pH 8-9 with 1 M HCl and solubility determined immediately, and following overnight and longer term storage.
Light yellow solid. […] Add 1M NaOH.

[2] = for soluble in water: pH 11; for solubility in words at acid pH: pH 1.8; for solubility in words at alkaline pH (1 M NaOH): pH 11.1
Excerpt: as §2
Light yellow solid. […] Add 1M NaOH.

human amylin (hA) = target: T1, human amylin (hA) (Homo sapiens, UniProt P10997); experiment: Thioflavin-T assay, inhibition of amylin fibril formation; format: biochemical
T1 construct: Human amylin, also known as islet amylin amyloid polypeptide (IAPP), is a 37-residue peptide hormone
T1 sequence (P10997 34-70 limits assumed): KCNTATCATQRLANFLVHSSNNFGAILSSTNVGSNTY
Method: (§1) The ability of the compounds to inhibit human amylin (hA) fibril formation was assessed using the thioflavin-T assay, as described in J. F. Aitken et al., Suppression by polycyclic compounds of the conversion of human amylin into insoluble amylin amyloid., Biochem J., 374 (2003), 779-784. Inhibition was assessed at three hA:compound ratios (1:1, 1:0.1, 1:0.01) for each compound.
as §1, with “J” for “J.,”, “(2003)” for “(2003),”

Structure (SMILES) | soluble during initial suspension and on titration and pH adjustment [1] [%] | soluble in water [2] [%] | solubility in words at acid pH [2] | solubility in words at alkaline pH (1 M NaOH) [2] | further results
COc1ccnc(NC(=O)CC(=O)c2ccc(O)c(O)c2)c1 [Compound 9] | 95 | 100 | – | – | –
COc1cccc(NC(=O)CC(=O)c2ccc(O)c(O)c2)n1 [Compound 1] | 100 | 100 | – | – | inhibition of hA fibril formation (human amylin (hA); Example 12, FIG. 1B, hA:compound ratio 1:0.1): Inhibition of hA fibril formation was observed
O=c1cc(-c2ccc(O)cc2)nc2cccc(O)n12 [Compound 5] | – | – | – | – | appearance after adding 1 M HCl, pH 8.9 ([1]; Example 14): slightly cloudy, some precipitation; inhibition of hA fibril formation (human amylin (hA); Example 14, ratio not stated at the place): little inhibition; solubility at pH 7.4 ([2]; pH 7.4): lack of solubility; solubility below pH 10 ([2]; pH 10): not soluble; solubility in words after adding 1 M NaOH again, pH 10.4 ([2]; pH 10.4): completely soluble; soluble on addition of 1 M NaOH ([2]; pH 10.6): approx. 70%; solubility in words after leaving 30 min in 1M NaOH ([2]; pH 11.3): completely soluble
COc1ccc(-c2cc(=O)n3c(O)cccc3n2)cc1OC [Compound 7] | – | – | Completely insoluble | Completely insoluble | –
O=c1cc(-c2cccc(O)c2)nc2cccc(O)n12 [Compound 6] | – | – | Completely insoluble | Completely insoluble | –
